The values below come from patent publication US8563254B2, “Biomarkers of tumor pharmacodynamic response” (Novartis AG, priority 2009, dated 2013).

The structures appear in SMILES notation. Some results are limits rather than exact numbers.

Assay [1] has as its system GTL-16 cells. The assay is described as follows: Cell viability by CellTiter-Glo, GTL-16. Type of assay: cell-based, human. As to conditions: GTL-16, 0.3 μM, 72 hr treatment time. The protocol:
Cell Viability was measured by CellTiter-Glo assay (Promega U.S., Madison, Wis., USA). GTL-16 and A375 cells were grown in 6-well poly-D-lysine coated plates (BD Biosciences). Cells were treated with NVP-AUY922. Cell viability was measured 16, 24, 48 and 72 hr post-treatment with Hsp90 inhibitor. Briefly supernatants were removed and cells were washed with 3 ml of PBS, pH 7.4. 1 ml of a two component CellTiter-Glo reagent was added to each well and the plates were shaken vigorously for 2 min, followed by 10 min incubation at room temperature in the dark. Luminescent signal intensity was recorded with an integration time set between 0.25 and 1 s/well.
A general note: ATP-based viability assays read luminescence as a measure of living cells.

For assay [2], the system named is GTL-16 cells. The assay is described as follows: Multiplexed bead-based 27-plex cytokine panel, GTL-16 culture supernatants. The format is cell-based, human. As to conditions: 48 hr. The protocol:
(§1) A malignant melanoma cell line A375 (American Type Culture Collection, Manassas, Va., USA) and gastric cancer cell line, GTL-16 (Prof Silvia Giordano, Institute for Cancer Research and Treatment, Turin, Italy) were cultured in RPMI 1640 supplemented with 10% FBS and 1% penicillin-streptomycin at 37° C. in 5% CO2 (GIBCO reagents, Invitrogen Corporation, Carlsbad, Calif., USA). Cell numbers were determined by ViCell™ XR Cell Viability Analyzer 2.03 (Beckman Coulter, Inc., Fullerton, Calif., USA). Cells were seeded in poly-D-lysine coated plates (BIOCOAT Cell Environments, Becton Dickinson Biosciences, San Jose, Calif., USA).
(§2) Human IL-8 levels in cell culture supernatants treated with NVP-AUY922 were initially assessed as part of a multiplexed bead-based cytokine panel (hu 27-plex panel I, Bio-rad Laboratories, Hercules, Calif., USA) with a BioPlex Suspension Array System (Bio-rad). Human IL-8 and mouse KC levels in serum derived from GTL-16 and A375 tumor-bearing mice treated with NVP-AUY922 were measured by single-plex cytokine bead-based assay (Milliplex, Millipore, Billerica, Mass., USA). The BioPlex system uses a liquid suspension array of beads. The beads align in a single file through a flow cell to the detector, where a red classification laser at a wavelength of 635 nm and a green reporter laser at a wavelength of 532 nm are used to identify each bead's spectral address and associated reporter signal, respectively.
(§3) In a screen for candidate secreted markers of Hsp90 inhibition, cell culture supernatants were collected from GTL-16 gastric carcinoma and A375 melanoma cells that were washed and treated for 48 hr with 1 μM NVP-AUY922 in fresh culture medium. These samples were analyzed by a multiplexed cytokine bead-based assay that included a panel of 27 human cytokines, the results of which are shown in FIG. 1. […] In addition to this empirical investigation using the bead-based immunoassay panel, in silica data mining was undertaken to identify secreted proteins that were regulated by previously reported Hsp90 client proteins; this investigation pointed to a number of candidates, including IL-8, consistent with the empirical results.

Assay [3] relates to tumor-bearing mice. Nature of the assay: Serum IL-8 in tumor-bearing mice, summary of both models. As to conditions: single dose. Type of assay: in vivo. How it is done:
The in vivo study was carried out in strict accordance with Swiss law for animal protection and was approved by the Swiss Cantonal Veterinary Office of Basel-Stadt. GTL-16 (4×10^6) and A375 cells (5×10^6) were inoculated subcutaneously in the right flank in 200 μl Hanks' balanced salt solution (HBSS) or PBS, respectively. Invasive procedures were performed under Forene anesthesia. All experiments were performed in female Harlan HsdNpa: Athymic Nude-nu mice (Laboratory Animal Services, Novartis Pharma AG, Basel). The animals were kept under optimized hygienic conditions with 12 hr dark, 12 hr light conditions. The animals were fed food and water ad libitum. A single 75 mg/kg and 50 mg/kg dose of Hsp90 inhibitor, NVP-AUY922 was administered to the GTL-16 and A375 tumor-bearing mice, when tumors had reached a mean volume of 200 mm^3-500 mm^3 in size. Mice in the control group were injected with the vehicle (D5W). […]
Human IL-8 levels in cell culture supernatants treated with NVP-AUY922 were initially assessed as part of a multiplexed bead-based cytokine panel (hu 27-plex panel I, Bio-rad Laboratories, Hercules, Calif., USA) with a BioPlex Suspension Array System (Bio-rad). Human IL-8 and mouse KC levels in serum derived from GTL-16 and A375 tumor-bearing mice treated with NVP-AUY922 were measured by single-plex cytokine bead-based assay (Milliplex, Millipore, Billerica, Mass., USA). […]

Assay [4] deals with A375 cells. The assay is described as follows: Quantitative RT-PCR of IL-8 mRNA, A375. The format is cell-based, human. As to conditions: A375, 0.3 μM, 16 hr. The protocol: Total cellular RNA was extracted from the GTL-16 and A375 cell lines using RNeasy mini kit (Qiagen, Inc., Valencia, Calif., USA). Total RNA quantitation was carried out using a RiboGreen assay (Invitrogen Corporation, Carlsbad, Calif., USA). 1 μg of total RNA was reverse transcribed using AMV reverse transcriptase (Reverse Transcription Kit, Promega U.S., Madison, Wis., USA). A 20 μl reaction cocktail was prepared as follows; 1 μg total RNA in 10 μl of RNase, DNase-free H2O, 4 μl of 25 mM MgCl2, 2 μl of 10× reverse transcriptase buffer, 2 μl of 10 mM dNTP's, 1 μl of 500 μg ml^−1 random hexamers, 1.5 μl of 10 μl ml^−1, and 40 U μl^−1 0.5 μl of recombinant RNase Inhibitor. Real time PCR was performed using a 7900HT fast real-time PCR system (Applied Biosystems, Foster City, Calif., USA) using the Power SYBR Green PCR master mix (Applied Biosystems). The primers for IL-8 and GAPDH were: IL-8 sense: 5′-[…]-3′ (SEQ ID NO:3) and IL-8 antisense:
5′-[…]-3′ (SEQ ID NO:4); and GAPDH sense:
5′-[…]-3′ (SEQ ID NO:5), and GAPDH antisense;
5′-[…]-3′. (SEQ ID NO:6) The amplification process involved an initial 5 min denaturing step at 95° C. This was followed by annealing reactions for both IL-8 and GAPDH, of 45 s at 95° C. with 230 s at 68° C. for 34 cycles and 1 min at 95° C. with 1 min at 60° C. and 1 min 72° C. for 30 cycles, respectively. The final extension was 10 min at 72° C. […]

For assay [5], the system named is A375 cells. Nature of the assay: Multiplexed bead-based 27-plex cytokine panel, A375 culture supernatants. The format is cell-based, human. As to conditions: 48 hr. The protocol: as §1, §2, §3

For `CCNC(=O)c1noc(-c2cc(C(C)C)c(O)cc2O)c1-c1ccc(CN2CCOCC2)cc1` [NVP-AUY922, 5-(2,4-Dihydroxy-5-isopropyl-phenyl)-4-(4-morhpolin-4-ylmethyl-phenyl)-isoxazole-3-carboxylic acid ethylamide], the “cell viability over time” value in assay [1] is “steadily declines”. Moreover, in assay [2] (GTL-16, 1 μM), the “accumulation of FGF basic and MIP-1b” value was “virtually unchanged”; the “accumulation of IL-1ra, IL-8, IL-17, Eotaxin, GM-CSF, IP-10, PDGF-bb and VEGF” value is on record as “decreased accumulation”; the “accumulation of IL-15” value was “increased accumulation”. The IL-8 accumulation decreased entry in assay [2] (GTL-16 culture supernatant, 1 μM, multiplexed assay) is recorded as “more than 80%”. The “transient decrease in serum IL-8 levels” value in assay [3] is 40-70%. Besides, the “IL-8 mRNA levels lower in treated versus untreated cells” value in assay [4] is reported as 95%. In assay [5] (A375, 1 μM), the IL-2 levels result is “increased”; the “accumulation of IL-1ra, IL-8, MCP-1 (MCAF) and VEGF” value was “decreased accumulation”; the “accumulation of other detectable cytokines” value is recorded as “remained unchanged”. The IL-8 accumulation decreased in assay [5] (A375 culture supernatant, 1 μM, multiplexed assay) is listed as more than 70%.
